Laboratory results taken from patent US9573899B2, “USP7 inhibitor compounds and methods of use” (Genentech, Inc., priority 2015, dated 2017).

Columns and labels:
[1] = target: T1, USP47 (Homo sapiens, UniProt Q96K76); experiment: Ub-Rho110 DUB assay, Table 2, USP47; assay type: biochemical
T1 sequence (Q96K76 1-1375): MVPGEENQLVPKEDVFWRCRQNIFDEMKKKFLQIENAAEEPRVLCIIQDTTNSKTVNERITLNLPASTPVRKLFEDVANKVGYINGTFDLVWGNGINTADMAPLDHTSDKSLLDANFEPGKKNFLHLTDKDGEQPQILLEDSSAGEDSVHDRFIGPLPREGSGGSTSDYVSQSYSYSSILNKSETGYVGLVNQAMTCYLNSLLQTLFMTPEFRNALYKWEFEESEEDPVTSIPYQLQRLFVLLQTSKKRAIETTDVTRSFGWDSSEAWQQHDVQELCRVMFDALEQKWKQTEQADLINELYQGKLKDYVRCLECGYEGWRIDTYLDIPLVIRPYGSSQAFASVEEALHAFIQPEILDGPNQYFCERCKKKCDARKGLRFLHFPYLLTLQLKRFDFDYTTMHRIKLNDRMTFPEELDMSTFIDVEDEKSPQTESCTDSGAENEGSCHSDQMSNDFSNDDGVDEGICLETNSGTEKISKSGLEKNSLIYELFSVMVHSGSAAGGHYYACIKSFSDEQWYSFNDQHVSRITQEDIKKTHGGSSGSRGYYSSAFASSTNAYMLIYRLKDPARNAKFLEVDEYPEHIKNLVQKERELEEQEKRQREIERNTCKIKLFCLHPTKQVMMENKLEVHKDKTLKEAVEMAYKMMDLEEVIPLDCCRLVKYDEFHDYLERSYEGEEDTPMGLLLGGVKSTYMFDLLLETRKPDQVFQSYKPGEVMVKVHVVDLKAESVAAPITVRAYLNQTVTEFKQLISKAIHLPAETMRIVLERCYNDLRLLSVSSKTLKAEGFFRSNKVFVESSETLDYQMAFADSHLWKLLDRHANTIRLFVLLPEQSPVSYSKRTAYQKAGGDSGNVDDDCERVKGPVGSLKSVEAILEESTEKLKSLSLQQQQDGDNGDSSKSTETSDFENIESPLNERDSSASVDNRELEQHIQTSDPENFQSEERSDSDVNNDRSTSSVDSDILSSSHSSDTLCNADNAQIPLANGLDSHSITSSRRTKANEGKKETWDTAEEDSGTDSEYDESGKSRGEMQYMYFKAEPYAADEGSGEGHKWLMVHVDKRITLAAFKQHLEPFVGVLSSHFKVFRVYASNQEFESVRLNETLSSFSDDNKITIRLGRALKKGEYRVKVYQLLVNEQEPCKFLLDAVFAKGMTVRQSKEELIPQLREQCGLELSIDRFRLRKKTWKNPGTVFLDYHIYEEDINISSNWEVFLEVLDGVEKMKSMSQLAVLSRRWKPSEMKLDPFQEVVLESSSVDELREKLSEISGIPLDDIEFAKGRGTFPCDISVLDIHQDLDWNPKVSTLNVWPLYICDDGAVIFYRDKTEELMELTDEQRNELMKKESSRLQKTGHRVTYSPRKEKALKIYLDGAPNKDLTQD

[2] = test system: p53 and p21 in HCT116 colon cancer cell lines; experiment: Western blot of p53 and p21 in isogenic HCT116 cell lines (FIG. 2A); assay type: cell-based, Human; conditions: isogenic HCT116: wild-type, USP7 null
Description: (§1) In 24-well plates, 0.10-0.15×10^6 (adherent) or 0.5×10^6 (suspension) cells were treated with 15 μM or 2.5 μM compounds, respectively, for 24 h in low serum prior to lysis for Western Blot analysis.

[3] = test system: MDM2 in MCF7 breast cancer cells; experiment: MDM2 turnover in MCF7 cells with cycloheximide (FIG. 3A); assay type: cell-based; conditions: 15 μM, in the presence of cycloheximide (CHX)
Description: In 24-well plates, 0.15×10^6 MCF-7 cells were treated for a total of 8 h with DMSO or compounds (15 μM). During that 8 h, cycloheximide (CHX) was added for the indicated times prior to harvest.

[4] = test system: p53, p21, MDM2 and E6AP in RKO, RKO-E6, Vibo and SiHA cell lines; experiment: Western blot in RKO, RKO-E6, Vibo and SiHA cells (FIG. 14A); assay type: cell-based
Description: as §1

[5] = test system: colon cancer cell lines RKO and RKO-E6, and cervical cancer cell lines Vibo and SiHA; experiment: Incucyte cell proliferation in RKO, RKO-E6, Vibo and SiHA cells (FIG. 15); assay type: cell-based
Description: 2,500-5,000 cells were seeded in 1-well of a 96-well plate (Corning; 3904). The following day, the media was changed from normal (10%) to low serum (0.5%) containing vehicle (DMSO) or compounds. 16-24 h later FBS was added to each well to bring serum levels back to normal (10%). Cells were then allowed to grow for 2 days. All treatments were done in triplicate. The day after cells were seeded, the media was changed to low serum media containing 2 μM CellEvent Caspase 3/7 reagent (Life Technologies; C10423) and compounds. The plates were placed in an IncuCyte (Essen Bioscience, Inc.) live cell imager and scanning was started 15-20 mins after. IncuCyte™ ZOOM facilitates live-cell monitoring via customized imaging protocols. Images were taken every 2 h for at least 3 days, using a 10× objective. Phase contrast was used to measure cell confluency/density while green fluorescence was used to measure caspase activity. The images were analyzed using IncuCyte software (Basic Analysis parameters) and a ratio of caspase activity to cell density was determined.

[6] = target: T2, USP5 (Homo sapiens, UniProt P45974); experiment: Ub-Rho110 DUB assay, Table 2, USP5
T2 sequence (P45974 1-858): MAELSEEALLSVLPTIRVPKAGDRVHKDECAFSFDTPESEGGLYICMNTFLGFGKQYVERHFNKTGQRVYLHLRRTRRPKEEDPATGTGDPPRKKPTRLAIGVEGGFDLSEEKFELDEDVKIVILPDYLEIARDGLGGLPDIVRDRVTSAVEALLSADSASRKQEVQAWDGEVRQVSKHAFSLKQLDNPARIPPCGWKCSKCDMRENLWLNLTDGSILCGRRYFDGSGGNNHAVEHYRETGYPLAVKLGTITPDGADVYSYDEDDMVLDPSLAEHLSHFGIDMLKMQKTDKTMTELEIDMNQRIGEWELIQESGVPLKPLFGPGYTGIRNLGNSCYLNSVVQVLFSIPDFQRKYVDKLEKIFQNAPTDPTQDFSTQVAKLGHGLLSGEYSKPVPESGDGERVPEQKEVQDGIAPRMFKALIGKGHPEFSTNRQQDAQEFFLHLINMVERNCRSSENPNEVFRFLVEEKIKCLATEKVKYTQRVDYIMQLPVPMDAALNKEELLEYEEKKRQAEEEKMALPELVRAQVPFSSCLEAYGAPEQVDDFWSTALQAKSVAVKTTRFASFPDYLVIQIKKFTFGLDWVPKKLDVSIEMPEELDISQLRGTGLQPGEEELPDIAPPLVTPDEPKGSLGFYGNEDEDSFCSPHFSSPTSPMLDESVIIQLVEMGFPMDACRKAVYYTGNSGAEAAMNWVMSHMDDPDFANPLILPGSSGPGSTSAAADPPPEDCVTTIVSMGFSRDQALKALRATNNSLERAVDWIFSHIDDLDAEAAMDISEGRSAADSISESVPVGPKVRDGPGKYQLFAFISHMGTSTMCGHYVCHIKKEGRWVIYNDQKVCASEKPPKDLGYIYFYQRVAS

[7] = target: T3, USP7, full-length, native C-Terminus (Homo sapiens, UniProt Q93009); experiment: Biochemical USP7 assay with Ubiquitin-Rho110 substrate, compounds pre-incubated with USP7 (USP7_Ub-Rho preInc); conditions: compounds pre-mixed with USP7, 1 hour incubation, before substrate; read-out: USP7 Ub-Rho preInc (IC50)
T3 construct: USP7, full-length, native C-Terminus, 0.2 nM
Procedure, shortened: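 Full-length USP7 (0.2 nM) cleaving Ubiquitin-Rho110 (1 uM) in pH 7.5 Tris buffer with DTT, 1 h at room temperature, acetic-acid quenched; Rho110 fluorescence at 485/535 nm. Pre-incubation variant: compound and USP7 mixed 1 h before substrate addition. IC50 from % inhibition versus no-enzyme and uninhibited controls.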

[8] = target: T4, USP7 (Homo sapiens, UniProt Q93009); experiment: Ub-Rho110 DUB assay, Table 2, USP7; assay type: biochemical; conditions: for selectivity of antagonism of USP7 catalytic activity over the DUBs evaluated: conclusion from Table 2 (USP7, USP7 cat, USP47, USP5)
T4 construct: USP7, full-length, native C-Terminus, 0.2 nM
Description: (§2) Biochemical USP7 assays using Ubiquitin-Rho110 as a substrate: The final assay conditions were as follows: The Reaction Buffer consisted of: 50 mM Tris (pH 7.5), 0.01% (v/v) Triton X-100, 2.5 mM Dithiothreitol, 0.1% (w/v) bovine gamma globulin (Sigma cat #G5009-25G); USP7, full-length, native C-Terminus, 0.2 nM; the substrate, Ubiquitin-Rho110 (Boston Biochem cat #U-555), 1 uM. Reactions were carried out for 1 hour at room temperature, in black 20 μL volume polystyrene ProxiPlate 384 F Plus® (PerkinElmer cat #6008260).
(§3) Test compounds, including a control USP7 inhibitor (Ub-aldehyde, Boston Biochem cat #U-201) were serially diluted in DMSO, in 384 well clear V-bottom polypropylene plates (Greiner cat #781280). Compounds in DMSO were diluted 10-fold into Reaction Buffer, to achieve 3-fold the final desired concentration. The substrate, Ubiquitin-Rho110 (Boston Biochem cat #U-555), was prepared at 3 μM (3-fold the final concentration) and 5 ul was dispensed into the reaction plate. 5 ul of the compounds (diluted in Reaction Buffer at 3-fold the final concentration) were transferred to the reaction plate. 5 ul of 0.6 nM USP7 (diluted in Reaction Buffer at 3-fold the final concentration) was transferred to the reaction plate to initiate the reaction. After 1 hour incubation at room temperature the reaction was quenched by the addition of 5 ul of 400 mM acetic acid. The enzymatic product was measured by quantifying the fluorescence signal of cleaved Rhodamine-110 using excitation at 485 nm and emission at 535 nm. When pre-incubation of USP7 with compounds was required, the order of addition of reagents was modified to pre-mix the compounds with USP7 (with a 1 hour incubation period), prior to the addition of the substrate and the initiation of the reaction period. Percentage inhibition values were calculated relative to a no enzyme control and a uninhibited enzyme control. Curve fitting and IC50 calculations were carried out using Genedata Screener software.

[9] = target: USP7 catalytic domain (Homo sapiens, UniProt Q93009); experiment: Ub-Rho110 DUB assay, Table 2, USP7 catalytic domain; assay type: biochemical; conditions: read-out: Ub-Rho110 IC50, USP7 cat
Chain of USP7 catalytic domain (Q93009 214-521 limits assumed): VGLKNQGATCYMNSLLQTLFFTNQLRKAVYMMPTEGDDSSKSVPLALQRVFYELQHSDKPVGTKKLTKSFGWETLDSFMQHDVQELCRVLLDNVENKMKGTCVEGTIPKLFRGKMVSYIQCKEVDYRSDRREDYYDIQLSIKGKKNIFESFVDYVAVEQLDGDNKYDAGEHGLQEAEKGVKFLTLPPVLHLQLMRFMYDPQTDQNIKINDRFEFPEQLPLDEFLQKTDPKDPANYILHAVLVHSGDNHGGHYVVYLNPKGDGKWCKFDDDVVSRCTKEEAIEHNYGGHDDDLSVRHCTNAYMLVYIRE
Description: as §2, §3

T4 sequence (Q93009 whole entry): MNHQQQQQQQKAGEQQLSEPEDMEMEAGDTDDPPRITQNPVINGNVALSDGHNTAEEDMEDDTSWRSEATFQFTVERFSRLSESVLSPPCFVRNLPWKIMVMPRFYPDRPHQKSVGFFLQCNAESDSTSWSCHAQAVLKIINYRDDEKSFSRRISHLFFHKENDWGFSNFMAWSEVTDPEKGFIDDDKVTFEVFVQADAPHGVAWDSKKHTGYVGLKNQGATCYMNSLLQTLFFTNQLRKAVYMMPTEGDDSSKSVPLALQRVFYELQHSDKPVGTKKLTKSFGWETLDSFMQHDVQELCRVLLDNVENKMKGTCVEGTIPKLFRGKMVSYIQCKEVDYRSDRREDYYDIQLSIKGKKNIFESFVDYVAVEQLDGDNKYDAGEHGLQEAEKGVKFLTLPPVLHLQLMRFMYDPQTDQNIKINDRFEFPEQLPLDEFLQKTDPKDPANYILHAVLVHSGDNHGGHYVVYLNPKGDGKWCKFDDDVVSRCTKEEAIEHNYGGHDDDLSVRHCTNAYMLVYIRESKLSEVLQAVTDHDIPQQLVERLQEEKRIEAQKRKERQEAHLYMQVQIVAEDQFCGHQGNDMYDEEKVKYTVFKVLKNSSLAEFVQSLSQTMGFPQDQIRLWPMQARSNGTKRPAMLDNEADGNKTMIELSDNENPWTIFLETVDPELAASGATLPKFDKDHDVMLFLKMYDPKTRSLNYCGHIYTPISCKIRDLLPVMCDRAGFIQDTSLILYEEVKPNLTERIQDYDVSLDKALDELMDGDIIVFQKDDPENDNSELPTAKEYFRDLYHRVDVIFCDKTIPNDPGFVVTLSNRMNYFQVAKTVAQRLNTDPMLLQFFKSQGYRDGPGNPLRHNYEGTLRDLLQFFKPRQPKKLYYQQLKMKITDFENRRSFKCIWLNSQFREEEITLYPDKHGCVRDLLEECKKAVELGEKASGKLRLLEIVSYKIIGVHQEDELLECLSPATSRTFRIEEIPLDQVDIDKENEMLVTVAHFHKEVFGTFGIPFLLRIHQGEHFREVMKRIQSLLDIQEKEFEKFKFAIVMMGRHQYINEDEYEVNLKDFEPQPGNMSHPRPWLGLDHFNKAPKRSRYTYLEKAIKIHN
T3 sequence (Q93009 whole entry): as above

IC50 [1]	IC50 [6]	IC50 [7]	IC50 [8]	IC50 [9]	SMILES	stabilization of p53 and p21 (western blot) [2]	destabilizing effect on MDM2 (western blot) [3]	effect on p53, p21, MDM2 and E6AP (western blot) [4]	cell viability (Incucyte cell proliferation) [5]	selectivity of antagonism of USP7 catalytic activity over the DUBs evaluated [8]
> 200 µM	> 200 µM				CCc1c(-c2ccc3cn(C)nc3c2)cnc(N)c1-c1ccc(O)cc1 [Compound 89, 4-[2-amino-4-ethyl-5-(2-methylindazol-6-yl)-3-pyridyl]phenol]	not	less active	stabilize p53, p21, and destabilize MDM2 and E6AP	not	
> 200 µM	> 200 µM	2.6 µM	2.9 µM	1.3 µM	CCc1c(-c2ccc(C(N)=O)cc2)cnc(N)c1-c1ccc(O)cc1 [Compound 45, 4-[6-amino-4-ethyl-5-(4-hydroxyphenyl)-3-pyridyl]benzamide]	not				selective antagonists of USP7 catalytic activity
> 200 µM	> 200 µM		> 63.3 µM	> 63.3 µM	CCc1c(-c2ccc(O)cc2)cnc(N)c1-c1ccc(COC)cc1 [Compound 25, 4-[6-amino-4-ethyl-5-[4-(methoxymethyl)phenyl]-3-pyridyl]phenol]	stabilize p53 and p21				ineffective in antagonizing the activity of any DUB evaluated
